Measurements as given in patent publication US20180099937A1, “NOVEL ARYL-CYANOGUANIDINE COMPOUNDS” (Bayer Pharma Aktiengesellschaft, priority 2015, published 2018).

Target: SMYD2 (Homo sapiens, UniProt Q9NRG4)
Assay: Scintillation Proximity Assay (SPA) for detection of SMYD2 enzymatic inhibition
Format: biochemical
Set-up: The SMYD2 full length enzyme was produced in-house by expression (with an N-terminal 6× His tag) in E. coli; 6xHis (N); made in house; host or cells: E. coli
Settings: SMYD2 full length enzyme, p53 Peptide substrate 1.0 μM, 3H-SAM 60 nM; read-out: IC50 [mol/l] (SPA Assay)
Source text: 1.1 Scintillation Proximity Assay (SPA) for Detection of SMYD2 Enzymatic Inhibition
SMYD2 inhibitory activities of the compounds described in the present invention were quantified using a scintillation proximity assay (SPA) which measures methylation by the enzyme of the synthetic, biotinylated peptide Btn-Ahx-[…]—Amid×TFA (Biosyntan) derived from p53 and referred to from here on as “p53 Peptide”. The SMYD2 full length enzyme was produced in-house by expression (with an N-terminal 6× His tag) in E. coli and purification by affinity chromatography on a Ni-NTA Sepharose column followed by a size exclusion chromatography step on a Superdex 200 16/60 column (GE Healthcare).
In a typical assay 11 different concentrations of each compound (0.1 nM, 0.33 nM, 1.1 nM, 3.8 nM, 13 nM, 44 nM, 0.15 μM, 0.51 μM, 1.7 μM, 5.9 μM and 20 μM) were tested in duplicate within the same microtiter plate. To this end, 100-fold concentrated compound solutions (in DMSO) were previously prepared by serial dilution (1:3.4) of 2 mM stocks in a clear low volume 384-well source microliter plate (Greiner Bio-One), from which 50 nl of compound solutions were transferred into a white low volume test microtiter plate from the same supplier. Subsequently, 2.5 μl SMYD2 in aqueous assay buffer [50 mM Tris/HCl pH 9.0 (AppliChem), 1 mM dithiothreitol (DTT, Sigma), 0.01% (w/v) bovine serum albumine (BSA, Sigma), 0.0022% (v/v) Pluronic (Sigma)] were added to the compounds in the test plate to a final enzyme concentration of —typically—3 nM (this parameter was adjusted depending on the activity of the enzyme lot in order to be within the linear dynamic range of the assay). The samples were then incubated for 15 min at 22° C. to allow pre-equilibration of the putative enzyme-inhibitor complexes before the start of the methylation reaction, which was initiated by the addition of 2.5 μl 2-fold concentrated solution (in assay buffer) of titriated S-Adenosyl-L-Methionine (3H-SAM, Perkin Elmer, final concentration: 60 nM) and p53 Peptide substrate (final concentration: 1.0 μM). The resulting mixture (5 μl final volume) was shortly centrifuged (2 min., 1500 rpm) and incubated at 22° C. during 30 min. Thereupon the reaction was stopped by adding 3 μl of Streptavidin PS SPA imaging beads (Perkin Elmer, final concentration of 3.12 μg/μl) and “cold” SAM (AK Scientific, 25 μM final concentration) for non-specific binding reduction. Plates containing the stopped reaction were sealed with transparent adhesive foil (Perkin Elmer), centrifuged (2 min., 1500 rpm), and further incubated for —at least—1 h at RT (or overnight at 4° C.) in order to allow the SPA signals to develop. Subsequently, the amount of product was evaluated by measuring the energy transfer from the β-particles emitted by the 3H-labeled substrate to the Europium scintillator co-polymerized in the polystyrene matrix of the PS imaging beads, using the standard settings for this purpose of a Viewlux (Perkin-Elmer) CCD plate imaging device (emission filter 613/55 (IFP). The resulting scintillation counts were taken as indicator for the amount of methylated peptide per well. The data were normalised using two sets of control wells (typically 16 each) for high−(=enzyme reaction with DMSO instead of test compound=0% =Minimum inhibition) and low−(=all assay components without enzyme=100% =Maximum inhibition) SMYD2 activity. IC50 values were calculated by fitting the normalized inhibition data to a 4-parameter logistic equation using the “Screener” analysis software from Genedata.

Chain of SMYD2 (Q9NRG4 whole entry): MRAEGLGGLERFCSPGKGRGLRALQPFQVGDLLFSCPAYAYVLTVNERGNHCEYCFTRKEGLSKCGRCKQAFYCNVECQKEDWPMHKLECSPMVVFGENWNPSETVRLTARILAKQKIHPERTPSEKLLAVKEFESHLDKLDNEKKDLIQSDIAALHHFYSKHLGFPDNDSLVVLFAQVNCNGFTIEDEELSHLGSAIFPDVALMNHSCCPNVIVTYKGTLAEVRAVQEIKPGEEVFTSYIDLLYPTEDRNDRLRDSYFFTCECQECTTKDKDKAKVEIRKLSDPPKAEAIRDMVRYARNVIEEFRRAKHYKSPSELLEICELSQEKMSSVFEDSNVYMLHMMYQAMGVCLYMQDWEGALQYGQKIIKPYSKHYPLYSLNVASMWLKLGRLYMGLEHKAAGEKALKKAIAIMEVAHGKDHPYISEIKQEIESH

| Compound | IC50 [µM] |
| --- | --- |
| CCN(C(=O)[C@H]1CCCN1)C1CN(/C(=N\C#N)Nc2cccc(OC(F)F)c2F)N=C1c1ccc(Cl)c(Cl)c1 (single isomer, unassigned) [Example 13.2, N-[1-{N′-Cyano-N-[3-(difluoromethoxy)-2-fluorophenyl]carbamimidoyl}-3-(3,4-dichlorophenyl)-4,5-dihydro-1H-pyrazol-4-yl]-N-ethyl-D-prolinamide] | 0.268 |
| CCN(C(=O)[C@H]1CCCN1)C1CN(/C(=N\C#N)Nc2cccc(OC(F)(F)F)c2)N=C1c1ccc(Cl)c(Cl)c1 (single isomer, unassigned) [Example 17.1, N-[1-{N′-Cyano-N-[3-(trifluoromethoxy)phenyl]carbamimidoyl}-3-(3,4-dichlorophenyl)-4,5-dihydro-1H-pyrazol-4-yl]-N-ethyl-D-prolinamide] | 0.021 |
| CCN(C(=O)[C@H]1CCCN1)C1CN(/C(=N\C#N)Nc2cccc(OC(F)(F)F)c2)N=C1c1ccc(Cl)c(Cl)c1 (single isomer, unassigned) [Example 17.2, N-[1-{N′-Cyano-N-[3-(trifluoromethoxy)phenyl]carbamimidoyl}-3-(3,4-dichlorophenyl)-4,5-dihydro-1H-pyrazol-4-yl]-N-ethyl-D-prolinamide] | 1.38 |
| CCN(C(=O)[C@H]1CCCN1)C1CN(/C(=N\C#N)Nc2ccc(F)c(OC(F)(F)F)c2)N=C1c1ccc(Cl)c(Cl)c1 (single isomer, unassigned) [Example 22.2, N-[1-{N′-Cyano-N-[4-fluoro-3-(trifluoromethoxy)phenyl]carbamimidoyl}-3-(3,4-dichlorophenyl)-4,5-dihydro-1H-pyrazol-4-yl]-N-ethyl-D-prolinamide] | 0.296 |
| CCN(C(=O)[C@H]1CCCN1)C1CN(/C(=N\C#N)Nc2cc(F)cc(OC(F)(F)F)c2)N=C1c1ccc(Cl)c(Cl)c1 (single isomer, unassigned) [Example 24.2, N-[1-{N′-Cyano-N-[3-fluoro-5-(trifluoromethoxy)phenyl]carbamimidoyl}-3-(3,4-diehlorophenyl)-4,5-dihydro-1H-pyrazol-4-yl]-N-ethyl-D-prolinamide] | 3.95 |
| CCN(C(=O)[C@H]1C[C@@H](F)CN1)C1CN(/C(=N\C#N)Nc2cc(F)cc(OC(F)(F)F)c2)N=C1c1ccc(Cl)c(Cl)c1 (single isomer, unassigned) [Example 25.1] | 0.248 |
| CCN(C(=O)[C@H]1C[C@@H](F)CN1)C1CN(/C(=N\C#N)Nc2cc(F)cc(OC(F)(F)F)c2)N=C1c1ccc(Cl)c(Cl)c1 (single isomer, unassigned) [Example 25.2] | > 20 |
| CCN(C(=O)[C@H]1CCCN1)C1CN(/C(=N\C#N)Nc2cc(C(F)(F)F)ccc2OC(F)(F)F)N=C1c1ccc(Cl)c(Cl)c1 (single isomer, unassigned) [Example 30.1, N-[1-{N′-Cyano-N-[2-(trifluoromethoxy)-5-(trifluoromethyl)phenyl]carbamimidoyl}-3-(3,4-dichlorophenyl)-4,5-dihydro-1H-pyrazol-4-yl]-N-ethyl-D-prolinamide] | 0.0545 |
| CCN(C(=O)[C@H]1CCCN1)C1CN(/C(=N\C#N)Nc2cc(C(F)(F)F)ccc2OC(F)(F)F)N=C1c1ccc(Cl)c(Cl)c1 (single isomer, unassigned) [Example 30.2, N-[1-{N′-Cyano-N-[2-(trifluoromethoxy)-5-(trifluoromethyl)phenyl]carbamimidoyl}-3-(3,4-dichlorophenyl)-4,5-dihydro-1H-pyrazol-4-yl]-N-ethyl-D-prolinamide] | 1.54 |
| CCN(C(=O)[C@H]1CCCN1)C1CN(/C(=N\C#N)Nc2cccc(CC(F)(F)F)c2)N=C1c1ccc(Cl)c(Cl)c1 (single isomer, unassigned) [Example 31.1, N-[1-{N′-Cyano-N-[3-(2,2,2-trifluoroethyl)phenyl]carbamimidoyl}-3-(3,4-dichlorophenyl)-4,5-dihydro-1H-pyrazol-4-yl]-N-ethyl-D-prolinamide] | 0.0336 |
| CCN(C(=O)[C@H]1CCCN1)C1CN(/C(=N\C#N)Nc2cccc(CC(F)(F)F)c2)N=C1c1ccc(Cl)c(Cl)c1 (single isomer, unassigned) [Example 31.2, N-[1-{N′-Cyano-N-[3-(2,2,2-trifluoroethyl)phenyl]carbamimidoyl}-3-(3,4-dichlorophenyl)-4,5-dihydro-1H-pyrazol-4-yl]-N-ethyl-D-prolinamide] | 0.211 |
| CCN(C(=O)[C@H]1CCN1)C1CN(/C(=N\C#N)Nc2cccc(OC(F)F)c2)N=C1c1ccc(Cl)c(C)c1 (single isomer, unassigned) [Example 36.2] | 0.302 |
| CCN(C(=O)[C@H]1CCCN1)C1CN(/C(=N\C#N)Nc2cccc(OC(F)F)c2)N=C1c1ccc(Cl)c(C)c1 (single isomer, unassigned) [Example 37.2, N-[3-(4-Chloro-3-methylphenyl)-1-{N′-cyano-N-[3-(difluoromethoxy)phenyl]carbamimidoyl}-4,5-dihydro-1H-pyrazol-4-yl]-N-ethyl-D-prolinamide] | > 20 |
| CCN(C(=O)[C@H]1C[C@@H](F)CN1)C1CN(/C(=N\C#N)Nc2cccc(OC(F)F)c2)N=C1c1ccc(Cl)c(C)c1 (single isomer, unassigned) [Example 38.2] | ~20 |
| CCN(C(=O)[C@H]1C[C@@H](O)CN1)C1CN(/C(=N\C#N)Nc2cccc(OC(F)F)c2)N=C1c1ccc(Cl)c(C)c1 (single isomer, unassigned) [Example 39.1] | 0.0322 |
| CCN(C(=O)[C@H]1C[C@@H](O)CN1)C1CN(/C(=N\C#N)Nc2cccc(OC(F)F)c2)N=C1c1ccc(Cl)c(C)c1 (single isomer, unassigned) [Example 39.2] | 1.64 |
| (2R)-N-[3-(4-chlaro-3-methylphenyl)-1-{N′-cyano-N-[3-(difluoromethoxy)phenyl]carbamimidoyl}-4,5-dihydro-1H-pyrazol-4-yl]-N-ethylpiperidine-2-carboxamide [Example 46] | 1.5 |
